What follows are compounds tested against Pol Theta (1-894) (Homo sapiens (Human), UniProt O75417) (assay: Biochemical Pol Theta (1-894) ATPase IC50 assay (ADP-Glo, ssDNA substrate)). Details: ADP-Glo assay with ssDNA substrate, room temperature.
In short: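 His-tagged human Pol Theta 1-894 from Sf9 baculovirus cells, 2× enzyme solution at 12.5 nM, assayed with ssDNA substrate at room temperature in 40 mM Tris pH 7.5, 20 mM MgCl2, 1 mM DTT, 0.01% BSA, 0.05% Tween-20.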

Pol Theta (1-894), sequence (O75417 1-894): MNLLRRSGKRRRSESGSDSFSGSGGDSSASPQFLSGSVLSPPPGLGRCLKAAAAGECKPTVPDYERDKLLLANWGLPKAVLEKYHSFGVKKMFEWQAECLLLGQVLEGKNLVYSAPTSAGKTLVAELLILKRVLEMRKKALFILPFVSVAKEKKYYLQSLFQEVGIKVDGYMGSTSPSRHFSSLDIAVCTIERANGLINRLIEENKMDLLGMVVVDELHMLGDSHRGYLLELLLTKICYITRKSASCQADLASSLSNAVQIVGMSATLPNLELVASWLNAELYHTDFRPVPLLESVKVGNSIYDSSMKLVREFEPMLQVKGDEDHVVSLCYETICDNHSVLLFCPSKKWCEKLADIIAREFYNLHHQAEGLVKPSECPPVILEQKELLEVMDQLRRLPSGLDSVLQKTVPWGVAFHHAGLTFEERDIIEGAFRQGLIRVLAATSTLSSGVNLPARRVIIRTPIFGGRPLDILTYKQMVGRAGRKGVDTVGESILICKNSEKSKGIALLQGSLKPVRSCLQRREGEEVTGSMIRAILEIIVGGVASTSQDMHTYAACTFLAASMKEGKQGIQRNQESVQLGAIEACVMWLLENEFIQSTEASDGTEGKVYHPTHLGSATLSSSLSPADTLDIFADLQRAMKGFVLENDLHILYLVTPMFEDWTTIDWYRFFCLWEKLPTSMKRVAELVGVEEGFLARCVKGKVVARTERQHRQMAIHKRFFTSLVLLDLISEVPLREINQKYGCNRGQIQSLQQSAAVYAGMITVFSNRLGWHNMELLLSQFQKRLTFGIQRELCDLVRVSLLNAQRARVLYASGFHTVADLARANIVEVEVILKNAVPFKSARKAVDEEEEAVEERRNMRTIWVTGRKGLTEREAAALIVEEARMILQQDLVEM

IC50 | SMILES
25 nM | COc1ccccc1-c1cnncc1C(=O)Nc1nc2ccc(-c3ccc(Cl)c4c3cnn4C)nc2s1 [Example 125, N-(5-(7-chloro-1-methyl-1H-indazol-4-yl)thiazolo[5,4-b]pyridin-2-yl)-5-(2-methoxyphenyl)pyridazine-4-carboxamide]
12 nM | COc1ccccc1-c1cnncc1C(=O)Nc1nc2ccc(-c3ccc(Cl)c4nn(C)cc34)nc2s1 [Example 126, N-(5-(7-chloro-2-methyl-2H-indazol-4-yl)thiazolo[5,4-b]pyridin-2-yl)-5-(2-methoxyphenyl)pyridazine-4-carboxamide]
35 nM | COc1ccc(C#N)cc1-c1cc(C)ncc1C(=O)Nc1nc2ccc(C3CCOC3)nc2s1 (stereo not drawn) [Example 127, 4-(5-cyano-2-methoxyphenyl)-6-methyl-N-(5-(tetrahydrofuran-3-yl)thiazolo[5,4-b]pyridin-2-yl)nicotinamide]
8.1 nM | COc1ccccc1-c1cnncc1C(=O)Nc1nc2ccc(-c3ccc(C#N)cc3F)nc2s1 [Example 128, N-(5-(4-cyano-2-fluorophenyl)thiazolo[5,4-b]pyridin-2-yl)-5-(2-methoxyphenyl)pyridazine-4-carboxamide]
23 nM | COc1ccccc1-c1cnncc1C(=O)Nc1nc2ccc(Oc3ccc(Cl)c(C)c3)nc2s1 [Example 129, N-(5-(4-chloro-3-methylphenoxy)thiazolo[5,4-b]pyridin-2-yl)-5-(2-methoxyphenyl)pyridazine-4-carboxamide]
35 nM | COc1ccccc1-c1cnncc1C(=O)Nc1nc2ccc(Oc3ccc(Cl)c(F)c3)nc2s1 [Example 130, N-(5-(4-chloro-3-fluorophenoxy)thiazolo[5,4-b]pyridin-2-yl)-5-(2-methoxyphenyl)pyridazine-4-carboxamide]
14 nM | COc1cc(Oc2ccc3nc(NC(=O)c4cnncc4-c4ccccc4OC)sc3n2)ccc1Cl [Example 131, N-(5-(4-chloro-3-methoxyphenoxy)thiazolo[5,4-b]pyridin-2-yl)-5-(2-methoxyphenyl)pyridazine-4-carboxamide]
12 nM | CCNC(=O)c1ccc(-c2ccc3nc(NC(=O)c4cnncc4-c4ccccc4OC)sc3n2)c(C)c1 [Example 132, N-(5-(4-(ethylcarbamoyl)-2-methylphenyl)thiazolo[5,4-b]pyridin-2-yl)-5-(2-methoxyphenyl)pyridazine-4-carboxamide]
11 nM | COc1ccccc1-c1cnncc1C(=O)Nc1nc2ccc(-c3ccc(S(C)(=O)=O)cc3F)nc2s1 [Example 133, N-(5-(2-fluoro-4-(methylsulfonyl)phenyl)thiazolo[5,4-b]pyridin-2-yl)-5-(2-methoxyphenyl)pyridazine-4-carboxamide]
15 nM | CNC(=O)c1ccc(-c2ccc3nc(NC(=O)c4cnncc4-c4ccccc4OC)sc3n2)c(C)c1 [Example 134, 5-(2-methoxyphenyl)-N-(5-(2-methyl-4-(methylcarbamoyl)phenyl)thiazolo[5,4-b]pyridin-2-yl)pyridazine-4-carboxamide]
23 nM | COc1ccc(C#N)cc1-c1cc(C)ncc1C(=O)Nc1nc2ccc(-c3ccc(N4CCCS4(=O)=O)cc3)nc2s1 [Example 135, 4-(5-cyano-2-methoxyphenyl)-N-(5-(4-(1,1-dioxidoisothiazolidin-2-yl)phenyl)thiazolo[5,4-b]pyridin-2-yl)-6-methylnicotinamide]
41 nM | COc1ccc(C#N)cc1-c1cc(C)ncc1C(=O)Nc1nc2ccc(-c3ccc(N(CCO)S(C)(=O)=O)cc3)nc2s1 [Example 136, 4-(5-cyano-2-methoxyphenyl)-N-(5-(4-(N-(2-hydroxyethyl)methylsulfonamido)phenyl)thiazolo[5,4-b]pyridin-2-yl)-6-methylnicotinamide]
54 nM | COc1ccccc1-c1cnncc1C(=O)Nc1nc2ccc(C(=O)c3ccc(Cl)cc3)nc2s1 [Example 137, N-(5-(4-chlorobenzoyl)thiazolo[5,4-b]pyridin-2-yl)-5-(2-methoxyphenyl)pyridazine-4-carboxamide]
263 nM | COc1ccccc1-c1cnncc1C(=O)Nc1nc2ccc(C(C)c3ccc(Cl)cc3)nc2s1 (stereo not drawn) [Example 138, N-(5-(1-(4-chlorophenyl)ethyl)thiazolo[5,4-b]pyridin-2-yl)-5-(2-methoxyphenyl)pyridazine-4-carboxamide]
21 nM | COc1ccccc1-c1cnncc1C(=O)Nc1nc2ccc(-c3ccc(Cl)c(C)c3C)nc2s1 [Example 139, N-(5-(4-chloro-2,3-dimethylphenyl)thiazolo[5,4-b]pyridin-2-yl)-5-(2-methoxyphenyl)pyridazine-4-carboxamide]
7.7 nM | COc1ccccc1-c1cnncc1C(=O)Nc1nc2ccc(-c3cc(C)c(NC(C)=O)c(C)c3)nc2s1 [Example 140, N-(5-(4-acetamido-3,5-dimethylphenyl)thiazolo[5,4-b]pyridin-2-yl)-5-(2-methoxyphenyl)pyridazine-4-carboxamide]
3.1 nM | COc1ccccc1-c1cnncc1C(=O)Nc1nc2ccc(-c3cc(C)c(NC(C)=O)cc3C)nc2s1 [Example 141, N-(5-(4-acetamido-2,5-dimethylphenyl)thiazolo[5,4-b]pyridin-2-yl)-5-(2-methoxyphenyl)pyridazine-4-carboxamide]

IC50 | SMILES
5.4 nM | COc1ccccc1-c1cnncc1C(=O)Nc1nc2ccc(-c3ccc(NC(C)=O)c(F)c3)nc2s1 [Example 142, N-(5-(4-acetamido-3-fluorophenyl)thiazolo[5,4-b]pyridin-2-yl)-5-(2-methoxyphenyl)pyridazine-4-carboxamide]
11 nM | COc1ccccc1-c1cnncc1C(=O)Nc1nc2ccc(-c3ccc(C#N)nc3)nc2s1 [Example 144, N-(5-(6-cyanopyridin-3-yl)thiazolo[5,4-b]pyridin-2-yl)-5-(2-methoxyphenyl)pyridazine-4-carboxamide]
22 nM | COc1ccc(C#N)cc1-c1cc(C)ncc1C(=O)Nc1nc2ccc(-c3ccc(C(=O)N4CCC4)cc3)nc2s1 [Example 145, N-(5-(4-(azetidine-1-carbonyl)phenyl)thiazolo[5,4-b]pyridin-2-yl)-4-(5-cyano-2-methoxyphenyl)-6-methylnicotinamide]
22 nM | COc1cccc(Cl)c1-c1cc(C)ncc1C(=O)Nc1nc2ccc(-c3ccc(C#N)cc3)nc2s1 [Example 146, 4-(2-chloro-6-methoxyphenyl)-N-(5-(4-cyanophenyl)thiazolo[5,4-b]pyridin-2-yl)-6-methylnicotinamide]
53 nM | Cc1cc(-c2cc(C#N)c(=O)n(C)c2)c(C(=O)Nc2nc3ccc(-c4ccc(C#N)cc4)nc3s2)cn1 [Example 147, 5-cyano-N-(5-(4-cyanophenyl)thiazolo[5,4-b]pyridin-2-yl)-1,6′-dimethyl-6-oxo-1,6-dihydro-[3,4′-bipyridine]-3′-carboxamide]
8.4 nM | COc1ccccc1-c1cnncc1C(=O)Nc1nc2ccc(-c3c(C)cc(C#N)cc3C)nc2s1 [Example 148, N-(5-(4-cyano-2,6-dimethylphenyl)thiazolo[5,4-b]pyridin-2-yl)-5-(2-methoxyphenyl)pyridazine-4-carboxamide]
18 nM | COc1ccccc1-c1cnncc1C(=O)Nc1nc2ccc(-c3ccc(N4COCC4=O)cc3)nc2s1 [Example 149, 5-(2-methoxyphenyl)-N-(5-(4-(4-oxooxazolidin-3-yl)phenyl)thiazolo[5,4-b]pyridin-2-yl)pyridazine-4-carboxamide]
43 nM | COc1ccccc1-c1cnncc1C(=O)Nc1nc2ccc(-c3c(C)cc(Cl)cc3Cl)nc2s1 [Example 150, N-(5-(2,4-dichloro-6-methylphenyl)thiazolo[5,4-b]pyridin-2-yl)-5-(2-methoxyphenyl)pyridazine-4-carboxamide]
73 nM | COc1ccc(C#N)cc1-c1cc(C)ncc1C(=O)Nc1nc2ccc(-c3ccc(C(=O)N4CCC4)c(C)c3)nc2s1 [Example 151, N-(5-(4-(azetidine-1-carbonyl)-3-methylphenyl)thiazolo[5,4-b]pyridin-2-yl)-4-(5-cyano-2-methoxyphenyl)-6-methylnicotinamide]
21 nM | COc1ccccc1-c1cnncc1C(=O)Nc1nc2ccc(Oc3ccc(C#N)cc3)nc2s1 [Example 152, N-(5-(4-cyanophenoxy)thiazolo[5,4-b]pyridin-2-yl)-5-(2-methoxyphenyl)pyridazine-4-carboxamide]
57 nM | COc1cccc(C#N)c1-c1cc(C)ncc1C(=O)Nc1nc2ccc(-c3ccc(C#N)cc3)nc2s1 [Example 153, 4-(2-cyano-6-methoxyphenyl)-N-(5-(4-cyanophenyl)thiazolo[5,4-b]pyridin-2-yl)-6-methylnicotinamide]
60 nM | COc1cc(Cl)ccc1Oc1ccc2nc(NC(=O)c3cnncc3-c3ccccc3OC)sc2n1 [Example 154, N-(5-(4-chloro-2-methoxyphenoxy)thiazolo[5,4-b]pyridin-2-yl)-5-(2-methoxyphenyl)pyridazine-4-carboxamide]
73 nM | COc1ccccc1-c1cnncc1C(=O)Nc1nc2ccc(Oc3ccc(Cl)cc3F)nc2s1 [Example 155, N-(5-(4-chloro-2-fluorophenoxy)thiazolo[5,4-b]pyridin-2-yl)-5-(2-methoxyphenyl)pyridazine-4-carboxamide]
14 nM | COc1ccc([N+](=O)[O-])cc1-c1ccncc1C(=O)Nc1nc2ccc(-c3ccc(C#N)cc3)nc2s1 [Example 156, N-(5-(4-cyanophenyl)thiazolo[5,4-b]pyridin-2-yl)-4-(2-methoxy-5-nitrophenyl)nicotinamide]
70 nM | Cc1cc(-c2cc(S(C)(=O)=O)ccc2C2CC2)c(C(=O)Nc2nc3ccc(-c4ccc(C#N)cc4)nc3s2)cn1 [Example 157, N-(5-(4-cyanophenyl)thiazolo[5,4-b]pyridin-2-yl)-4-(2-cyclopropyl-5-(methylsulfonyl)phenyl)-6-methylnicotinamide]
8.2 nM | COc1ccccc1-c1cnncc1C(=O)Nc1nc2ccc(-c3ccc(C#N)cn3)nc2s1 [Example 158, N-(5-(5-cyanopyridin-2-yl)thiazolo[5,4-b]pyridin-2-yl)-5-(2-methoxyphenyl)pyridazine-4-carboxamide]
